Data taken from PubChem BioAssay (NCI).
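GI50 marks 50% less growth. TGI is the concentration that stops growth completely.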

How the values were obtained:
Test in all cases: growth of human tumour cells (NCI), 384-well format
HCT-15 colon = system: HCT-15 colon
SN12C renal = system: SN12C renal
UACC-62 melanoma = system: UACC-62 melanoma
MALME-3M melanoma = system: MALME-3M melanoma
COLO 205 colon = system: COLO 205 colon
A498 renal = system: A498 renal
MDA-MB-231 breast = system: MDA-MB-231 breast
NCI-H23 lung = system: NCI-H23 lung
SF-268 CNS = system: SF-268 CNS
HCC-2998 colon = system: HCC-2998 colon
OVCAR-8 ovarian = system: OVCAR-8 ovarian
IGROV1 ovarian = system: IGROV1 ovarian
TK-10 renal = system: TK-10 renal
DU-145 prostate = system: DU-145 prostate
UACC-257 melanoma = system: UACC-257 melanoma
MCF7 breast = system: MCF7 breast
SK-MEL-5 melanoma = system: SK-MEL-5 melanoma
OVCAR-4 ovarian = system: OVCAR-4 ovarian
HCT-116 colon = system: HCT-116 colon
SNB-19 CNS = system: SNB-19 CNS
SK-MEL-28 melanoma = system: SK-MEL-28 melanoma
M14 melanoma = system: M14 melanoma
CAKI-1 renal = system: CAKI-1 renal
PC-3 prostate = system: PC-3 prostate
SF-539 CNS = system: SF-539 CNS
CCRF-CEM leukemia = system: CCRF-CEM leukemia
MDA-MB-435 melanoma = system: MDA-MB-435 melanoma
NCI-H522 lung = system: NCI-H522 lung
BT-549 breast = system: BT-549 breast
A549 NSCLC = system: A549 NSCLC
LOX IMVI melanoma = system: LOX IMVI melanoma
NCI-H460 NSCLC = system: NCI-H460 NSCLC
OVCAR-3 ovarian = system: OVCAR-3 ovarian
NCI-H226 lung = system: NCI-H226 lung
T-47D breast = system: T-47D breast
HOP-92 NSCLC = system: HOP-92 NSCLC
786-0 renal = system: 786-0 renal
SF-295 CNS = system: SF-295 CNS
UO-31 renal = system: UO-31 renal
SR leukemia = system: SR leukemia
HOP-62 NSCLC = system: HOP-62 NSCLC
ACHN renal = system: ACHN renal
NCI-H322M lung = system: NCI-H322M lung
MOLT-4 leukemia = system: MOLT-4 leukemia
RPMI-8226 leukemia = system: RPMI-8226 leukemia
U251 glioblastoma = system: U251 glioblastoma
HT29 colon = system: HT29 colon
HL-60(TB) leukemia = system: HL-60(TB) leukemia
MDA-MB-468 breast = system: MDA-MB-468 breast
RXF 393 renal = system: RXF 393 renal
K-562 leukemia = system: K-562 leukemia
SW-620 colon = system: SW-620 colon
OVCAR-5 ovarian = system: OVCAR-5 ovarian
NCI/ADR-RES ovarian = system: NCI/ADR-RES ovarian
SK-MEL-2 melanoma = system: SK-MEL-2 melanoma
SK-OV-3 ovarian = system: SK-OV-3 ovarian
KM12 colon = system: KM12 colon

## Cc1c(N(C(=O)c2cc(-c3cc(Cl)ccc3C(=O)N3Cc4ccccc4C[C@H]3CN3CCOCC3)n(C)c2C)c2ccc(O)cc2)cc(C#N)n1C
HCT-15 colon
  GI50: 9.36 µM
  TGI: 24.1 µM
SN12C renal
  GI50: 9.51 µM
  TGI: > 100 µM
UACC-62 melanoma
  GI50: 6.3 µM
  TGI: 27.3 µM
MALME-3M melanoma
  GI50: 19.2 µM
  TGI: 47.2 µM
COLO 205 colon
  GI50: 25.5 µM
  TGI: > 100 µM
A498 renal
  GI50: 4.79 µM
  TGI: 19 µM
MDA-MB-231 breast
  GI50: 3.74 µM
  TGI: 14.1 µM
NCI-H23 lung
  GI50: 9.38 µM
  TGI: > 100 µM
SF-268 CNS
  GI50: 22 µM
  TGI: > 100 µM
HCC-2998 colon
  GI50: 3.35 µM
  TGI: 8.64 µM
OVCAR-8 ovarian
  GI50: 8.66 µM
  TGI: > 100 µM
IGROV1 ovarian
  GI50: 13.5 µM
  TGI: > 100 µM
TK-10 renal
  GI50: 12.5 µM
  TGI: 58.6 µM
DU-145 prostate
  GI50: 16.3 µM
  TGI: > 100 µM
UACC-257 melanoma
  GI50: 10.1 µM
  TGI: 28.5 µM
MCF7 breast
  GI50: 11.4 µM
  TGI: > 100 µM
SK-MEL-5 melanoma
  GI50: 9.04 µM
  TGI: 28.4 µM
OVCAR-4 ovarian
  GI50: 5.99 µM
  TGI: 37.5 µM
HCT-116 colon
  GI50: 4.12 µM
  TGI: > 100 µM
SNB-19 CNS
  GI50: 7.72 µM
  TGI: > 100 µM
SK-MEL-28 melanoma
  GI50: 17.1 µM
  TGI: 67.1 µM
M14 melanoma
  GI50: 12 µM
  TGI: 34.1 µM
CAKI-1 renal
  GI50: 9.01 µM
  TGI: 66.1 µM
PC-3 prostate
  GI50: 7.32 µM
  TGI: 65.6 µM
SF-539 CNS
  GI50: 9.73 µM
  TGI: > 100 µM
CCRF-CEM leukemia
  GI50: 1.68 µM
  TGI: 3.11 µM
MDA-MB-435 melanoma
  GI50: 5.21 µM
  TGI: 19.3 µM
NCI-H522 lung
  GI50: 12.8 µM
  TGI: 36.8 µM
BT-549 breast
  GI50: 12.5 µM
  TGI: 30.9 µM
A549 NSCLC
  GI50: 7.07 µM
  TGI: > 100 µM
LOX IMVI melanoma
  GI50: 10.4 µM
  TGI: 33 µM
NCI-H460 NSCLC
  GI50: 6.2 µM
  TGI: > 100 µM
OVCAR-3 ovarian
  GI50: 3.87 µM
  TGI: 18.9 µM
NCI-H226 lung
  GI50: 9.16 µM
  TGI: 22.2 µM
T-47D breast
  GI50: 6.85 µM
  TGI: > 100 µM
HOP-92 NSCLC
  GI50: 2.58 µM
  TGI: 7.15 µM
786-0 renal
  GI50: 6.22 µM
  TGI: 30 µM
SF-295 CNS
  GI50: 13.4 µM
  TGI: 62.6 µM
UO-31 renal
  GI50: 10.9 µM
  TGI: > 100 µM
SR leukemia
  GI50: 1.46 µM
  TGI: 2.87 µM
HOP-62 NSCLC
  GI50: 5.87 µM
  TGI: 29.3 µM
ACHN renal
  GI50: 7.31 µM
  TGI: > 100 µM
NCI-H322M lung
  GI50: 24.7 µM
  TGI: > 100 µM
MOLT-4 leukemia
  GI50: 1.61 µM
  TGI: 2.97 µM
RPMI-8226 leukemia
  GI50: 1.26 µM
  TGI: 2.52 µM
U251 glioblastoma
  GI50: 7.69 µM
  TGI: > 100 µM
HT29 colon
  GI50: 10.9 µM
  TGI: 43.6 µM
HL-60(TB) leukemia
  GI50: 0.0546 µM
  TGI: 1.19 µM
MDA-MB-468 breast
  GI50: 2.84 µM
  TGI: 7.25 µM
RXF 393 renal
  GI50: 0.886 µM
  TGI: 3.92 µM
K-562 leukemia
  GI50: 4.85 µM
  TGI: 38.2 µM
SW-620 colon
  GI50: 11.3 µM
  TGI: 25.7 µM
OVCAR-5 ovarian
  GI50: 28 µM
  TGI: > 100 µM
NCI/ADR-RES ovarian
  GI50: 50.5 µM
  TGI: > 100 µM
SK-MEL-2 melanoma
  GI50: 5.97 µM
  TGI: 20 µM
SK-OV-3 ovarian
  GI50: 11.5 µM
  TGI: 45.2 µM
KM12 colon
  GI50: 16.1 µM
  TGI: > 100 µM
